# Test results as given in patent US12077503B2, “Substituted cyclic amides and their use as herbicides” (FMC CORPORATION, priority 2015, dated 2024).
# What was measured:
# Type in all cases: in vivo
# corn (Zea mays) [1] = assay: Test G Pre-Emergence Protocol; details: Zea mays, pre-emergence, 312 h, evaluated after 13 days; for plant injury at 15.625 g/ha: 15.625 g ai/ha; for plant injury at 15.625 g/ha / plant injury at 250 g/ha: read-out: Corn damage rating (100=total damage to plant; 0=no damage to plant); for plant injury at 62.5 g/ha: 62.5 g ai/ha, 100=total damage to plant, 0=no damage to plant, read-out: Corn damage rating; for plant injury at 250 g/ha: 250 g ai/ha
# In short: (§1)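 Glasshouse pre-emergence test: soil-sown seeds, sprayed after 1 d at 15.625, 62.5 or 250 g/ha. Conditions 24/16° C day/night, 14 h light, 65% humidity, watering twice daily. Rating 13 d post-spray (100 = total damage).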
# [2] = system: velvetleaf (Abutilon theophrasti); assay: Test G Pre-Emergence Protocol; details: Abutilon theophrasti, pre-emergence, 312 h, evaluated after 13 days; for pest or weed control at 15.625 g/ha: 15.625 g ai/ha; for pest or weed control at 15.625 g/ha / pest or weed control at 250 g/ha: read-out: Velvetleaf damage rating (100=total damage to plant; 0=no damage to plant); for pest or weed control at 62.5 g/ha: 62.5 g ai/ha, 100=total damage to plant, 0=no damage to plant, read-out: Velvetleaf damage rating; for pest or weed control at 250 g/ha: 250 g ai/ha
# In short: as §1
# [3] = system: ivy-leaved morning glory (Ipomoea hederacea); assay: Test G Pre-Emergence Protocol; details: Ipomoea, pre-emergence, 312 h, evaluated after 13 days; for pest or weed control at 15.625 g/ha: 15.625 g ai/ha; for pest or weed control at 15.625 g/ha / pest or weed control at 250 g/ha: read-out: Morningglory, Ivy-leaved damage rating (100=total damage to plant; 0=no damage to plant); for pest or weed control at 62.5 g/ha: 62.5 g ai/ha, 100=total damage to plant, 0=no damage to plant, read-out: Morningglory, Ivy-leaved damage rating; for pest or weed control at 250 g/ha: 250 g ai/ha
# In short: as §1
# [4] = system: barnyardgrass (Echinochloa crus-galli); assay: Test G Pre-Emergence Protocol; details: Echinochloa crus-galli, pre-emergence, 312 h, evaluated after 13 days; for pest or weed control at 15.625 g/ha: 15.625 g ai/ha; for pest or weed control at 15.625 g/ha / pest or weed control at 250 g/ha: read-out: Barnyardgrass damage rating (100=total damage to plant; 0=no damage to plant); for pest or weed control at 62.5 g/ha: 62.5 g ai/ha, 100=total damage to plant, 0=no damage to plant, read-out: Barnyardgrass damage rating; for pest or weed control at 250 g/ha: 250 g ai/ha
# In short: as §1
# [5] = system: giant foxtail (Setaria faberi); assay: Test G Pre-Emergence Protocol; details: Setaria faberi, pre-emergence, 312 h, evaluated after 13 days; for pest or weed control at 15.625 g/ha: 15.625 g ai/ha; for pest or weed control at 15.625 g/ha / pest or weed control at 250 g/ha: read-out: Foxtail, Giant damage rating (100=total damage to plant; 0=no damage to plant); for pest or weed control at 62.5 g/ha: 62.5 g ai/ha, 100=total damage to plant, 0=no damage to plant, read-out: Foxtail, Giant damage rating; for pest or weed control at 250 g/ha: 250 g ai/ha
# In short: as §1
# [6] = system: redroot pigweed (Amaranthus retroflexus); assay: Test G Pre-Emergence Protocol; details: Amaranthus retroflexus, pre-emergence, 312 h, evaluated after 13 days; for pest or weed control at 15.625 g/ha: 15.625 g ai/ha; for pest or weed control at 15.625 g/ha / pest or weed control at 250 g/ha: read-out: Pigweed, Redroot damage rating (100=total damage to plant; 0=no damage to plant); for pest or weed control at 62.5 g/ha: 62.5 g ai/ha, 100=total damage to plant, 0=no damage to plant, read-out: Pigweed, Redroot damage rating; for pest or weed control at 250 g/ha: 250 g ai/ha
# In short: as §1
# corn (Zea mays) [7] = assay: Test G Post-Emergence Protocol; details: Zea mays, post-emergence, 312 h, read-out: Corn damage rating; for plant injury at 15.625 g/ha: 15.625 g ai/ha, evaluated after 13 days (100=total damage to plant; 0=no damage to plant); for plant injury at 62.5 g/ha: 62.5 g ai/ha; for plant injury at 62.5 g/ha / plant injury at 250 g/ha: evaluated after 13 days, 100=total damage to plant, 0=no damage to plant; for plant injury at 250 g/ha: 250 g ai/ha
# In short: (§2)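 Seedlings grown 8 days in soil in a glasshouse (24/16 °C day/night, 14 h light, 65% humidity) were sprayed post-emergence with compound in acetone/water 50:50 plus 0.5% Tween 20 at 15.625, 62.5 or 250 g/ha. Damage was scored after 13 days on a 0–100 scale (100 = total damage).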
# [8] = system: velvetleaf (Abutilon theophrasti); assay: Test G Post-Emergence Protocol; details: Abutilon theophrasti, post-emergence, 312 h, read-out: Velvetleaf damage rating; for pest or weed control at 15.625 g/ha: 15.625 g ai/ha, evaluated after 13 days (100=total damage to plant; 0=no damage to plant); for pest or weed control at 62.5 g/ha: 62.5 g ai/ha; for pest or weed control at 62.5 g/ha / pest or weed control at 250 g/ha: evaluated after 13 days, 100=total damage to plant, 0=no damage to plant; for pest or weed control at 250 g/ha: 250 g ai/ha
# In short: as §2
# [9] = system: ivy-leaved morning glory (Ipomoea hederacea); assay: Test G Post-Emergence Protocol; details: Ipomoea, post-emergence, 312 h, read-out: Morningglory, Ivy-leaved damage rating; for pest or weed control at 15.625 g/ha: 15.625 g ai/ha, evaluated after 13 days (100=total damage to plant; 0=no damage to plant); for pest or weed control at 62.5 g/ha: 62.5 g ai/ha; for pest or weed control at 62.5 g/ha / pest or weed control at 250 g/ha: evaluated after 13 days, 100=total damage to plant, 0=no damage to plant; for pest or weed control at 250 g/ha: 250 g ai/ha
# In short: as §2
# [10] = system: barnyardgrass (Echinochloa crus-galli); assay: Test G Post-Emergence Protocol; details: Echinochloa crus-galli, post-emergence, 312 h, read-out: Barnyardgrass damage rating; for pest or weed control at 15.625 g/ha: 15.625 g ai/ha, evaluated after 13 days (100=total damage to plant; 0=no damage to plant); for pest or weed control at 62.5 g/ha: 62.5 g ai/ha; for pest or weed control at 62.5 g/ha / pest or weed control at 250 g/ha: evaluated after 13 days, 100=total damage to plant, 0=no damage to plant; for pest or weed control at 250 g/ha: 250 g ai/ha
# In short: as §2
# [11] = system: giant foxtail (Setaria faberi); assay: Test G Post-Emergence Protocol; details: Setaria faberi, post-emergence, 312 h, read-out: Foxtail, Giant damage rating; for pest or weed control at 15.625 g/ha: 15.625 g ai/ha, evaluated after 13 days (100=total damage to plant; 0=no damage to plant); for pest or weed control at 62.5 g/ha: 62.5 g ai/ha; for pest or weed control at 62.5 g/ha / pest or weed control at 250 g/ha: evaluated after 13 days, 100=total damage to plant, 0=no damage to plant; for pest or weed control at 250 g/ha: 250 g ai/ha
# In short: as §2
# [12] = system: redroot pigweed (Amaranthus retroflexus); assay: Test G Post-Emergence Protocol; details: Amaranthus retroflexus, post-emergence, 312 h, read-out: Pigweed, Redroot damage rating; for pest or weed control at 15.625 g/ha: 15.625 g ai/ha, evaluated after 13 days (100=total damage to plant; 0=no damage to plant); for pest or weed control at 62.5 g/ha: 62.5 g ai/ha; for pest or weed control at 62.5 g/ha / pest or weed control at 250 g/ha: evaluated after 13 days, 100=total damage to plant, 0=no damage to plant; for pest or weed control at 250 g/ha: 250 g ai/ha
# In short: as §2
Structure (SMILES),plant injury at 15.625 g/ha (corn (Zea mays) [1]) [%],plant injury at 62.5 g/ha (corn (Zea mays) [1]) [%],plant injury at 250 g/ha (corn (Zea mays) [1]) [%],pest or weed control at 15.625 g/ha [2] [%],pest or weed control at 62.5 g/ha [2] [%],pest or weed control at 250 g/ha [2] [%],pest or weed control at 15.625 g/ha [3] [%],pest or weed control at 62.5 g/ha [3] [%],pest or weed control at 250 g/ha [3] [%],pest or weed control at 15.625 g/ha [4] [%],pest or weed control at 62.5 g/ha [4] [%],pest or weed control at 250 g/ha [4] [%],pest or weed control at 15.625 g/ha [5] [%],pest or weed control at 62.5 g/ha [5] [%],pest or weed control at 250 g/ha [5] [%],pest or weed control at 15.625 g/ha [6] [%],pest or weed control at 62.5 g/ha [6] [%],pest or weed control at 250 g/ha [6] [%],plant injury at 15.625 g/ha (corn (Zea mays) [7]) [%],plant injury at 62.5 g/ha (corn (Zea mays) [7]) [%],further results
CN1C[C@@H](c2ccc(C(F)(F)F)cc2)[C@H](C(=O)Nc2cscn2)C1=O (racemic) [Compound 1659],0,0,0,0,0,0,0,0,0,0,0,0,0,0,0,0,0,0,0,0,plant injury at 250 g/ha (corn (Zea mays) [7]): 10%; pest or weed control at 15.625 g/ha [8]: 0%; pest or weed control at 62.5 g/ha [8]: 0%; pest or weed control at 250 g/ha [8]: 0%; pest or weed control at 15.625 g/ha [9]: 0%; pest or weed control at 62.5 g/ha [9]: 0%; pest or weed control at 250 g/ha [9]: 0%; pest or weed control at 15.625 g/ha [10]: 0%; pest or weed control at 62.5 g/ha [10]: 0%; pest or weed control at 250 g/ha [10]: 20%; pest or weed control at 15.625 g/ha [11]: 0%; pest or weed control at 62.5 g/ha [11]: 0%; pest or weed control at 250 g/ha [11]: 40%; pest or weed control at 15.625 g/ha [12]: 0%; pest or weed control at 62.5 g/ha [12]: 0%; pest or weed control at 250 g/ha [12]: 20%
CC(C)S(=O)(=O)c1ccccc1NC(=O)[C@H]1C(=O)N(C)C[C@@H]1c1ccc(C(F)(F)F)cc1 (racemic) [Compound 1665],0,0,0,0,0,0,0,0,20,0,0,20,0,0,80,0,0,20,0,0,plant injury at 250 g/ha (corn (Zea mays) [7]): 0%; pest or weed control at 15.625 g/ha [8]: 0%; pest or weed control at 62.5 g/ha [8]: 0%; pest or weed control at 250 g/ha [8]: 0%; pest or weed control at 15.625 g/ha [9]: 0%; pest or weed control at 62.5 g/ha [9]: 0%; pest or weed control at 250 g/ha [9]: 0%; pest or weed control at 15.625 g/ha [10]: 0%; pest or weed control at 62.5 g/ha [10]: 0%; pest or weed control at 250 g/ha [10]: 40%; pest or weed control at 15.625 g/ha [11]: 0%; pest or weed control at 62.5 g/ha [11]: 0%; pest or weed control at 250 g/ha [11]: 60%; pest or weed control at 15.625 g/ha [12]: 0%; pest or weed control at 62.5 g/ha [12]: 0%; pest or weed control at 250 g/ha [12]: 40%
